According to patent publication US20250064758A1 (priority 2023, published 2025):

Key:
Type in all cases: cell-based
[1] = test system: SARS-COV-2 Omicron variant BA.5
[2] = test system: SARS-COV-2 Omicron variant BA.4
[3] = test system: SARS-COV-2 Delta variant B.1.617.2

Row | Compound | SARS-CoV-2 replication fitness (viral gene copies in cell supernatant) [1] | reduction in viral load [2] | reduction in viral load [1] | reduction in viral load [3]
1 | CC(C)NCC(O)c1ccc(O)c(O)c1 (stereo not drawn) [isoproterenol] | didn't affect |  |  | 
2 | CC(C)NCC(O)COc1ccc(CC(N)=O)cc1 (stereo not drawn) [atenolol] | didn't affect |  |  | 
3 | CC(C)(C)NCC(O)COc1cccc2c1CC(O)C(O)C2 (stereo not drawn) [Nadolol] | didn't affect |  |  | 
4 | CC(C)NCC(O)COc1cccc2ccccc12 (stereo not drawn) [Propranolol, 1-(isopropylamino)-3-(1-naphthyloxy)-2-propanol] |  | 2-3 log10 | 2-3 log10 | 2-3 log10
